Experimental data as given in patent US20120316199A1, “COMPOSITIONS AND METHODS FOR TREATING, CONTROLLING, REDUCING, OR AMELIORATING INFLAMMATORY PAIN” (priority 2011, published 2012).

Tested on: intraocular pressure (IOP)
Experiment: Intraocular pressure in New Zealand White rabbits, topical dosing four times daily
Assay type: in vivo
Conditions: untreated left eyes
Method: On Days 1-31, animals received daily topical doses of the appropriate test article into the right eye. Animals were dosed four times per day, with doses administered 2 hours apart. Doses were administered using a calibrated 50-μL pipette. The eyelids were held close for 10 seconds immediately following dosing. The time of each dose administration was recorded.
Intraocular pressure (“IOP”) was determined for both eyes of each animal on Days 3, 5, 10, 12, 16, 18, 22, 24, 26, 30, and 32. IOP was evaluated with a Medtronic Solan, Model 30 classic pneumatonometer. Proparacaine hydrochloride 0.5% (1 drop) was delivered to each eye prior to IOP measurement. IOP was measured on Monday. Wednesday, and Friday of each week. A two-point diurnal curve was established: IOP was recorded at 8 a.m. and 12 p.m. on Day 3, and at 8 a.m. and 2 p.m. on later days, with a ±1 hour range for each of these times. The time of the measurements was recorded.
Descriptive statistics were prepared for IOP data of each treatment group (left and right eyes separately) at each measurement interval. The statistics included the number of observations (“N”) mean, standard deviation (“STD”), and standard error (“SEM”). Statistical analyses were conducted on IOP results using Statistical Analysis Systems (SAS Institute. Inc., Cary, N.C. V8.0). Parameters were evaluated using analysis of variance/GLM Procedure followed by Tukey's Standardized Range Test (Tukey, 1985) for post hoc comparisons of group means. The level of significance was set at a probability of p<0.05 for all statistical procedures. Group IOP means were compared at each interval, with left and right eyes compared separately.

## Cc1ccc2c(NC[C@](O)(CC(C)(C)c3cc(F)cc4c3OCC4)C(F)(F)F)cccc2n1 [BOL-303242-X, mapracorat]
A.M. readings, Day 16, 1 mg/g (Group D)
  Intraocular Pressure, MEAN: 21.6 mmHg
A.M. readings, Day 16, 5 mg/g (Group C)
  Intraocular Pressure, MEAN: 23.4 mmHg
A.M. readings, Day 16, 10 mg/g (Group B)
  Intraocular Pressure, MEAN: 22.9 mmHg
A.M. readings, Day 18, 1 mg/g (Group D)
  Intraocular Pressure, MEAN: 23.3 mmHg
A.M. readings, Day 18, 5 mg/g (Group C)
  Intraocular Pressure, MEAN: 21.9 mmHg
A.M. readings, Day 18, 10 mg/g (Group B)
  Intraocular Pressure, MEAN: 21.2 mmHg
A.M. readings, Day 22, 1 mg/g (Group D)
  Intraocular Pressure, MEAN: 22.4 mmHg
A.M. readings, Day 22, 5 mg/g (Group C)
  Intraocular Pressure, MEAN: 21.6 mmHg
A.M. readings, Day 22, 10 mg/g (Group B)
  Intraocular Pressure, MEAN: 21.8 mmHg
A.M. readings, Day 24, 1 mg/g (Group D)
  Intraocular Pressure, MEAN: 22.4 mmHg
A.M. readings, Day 24, 5 mg/g (Group C)
  Intraocular Pressure, MEAN: 22.1 mmHg
A.M. readings, Day 24, 10 mg/g (Group B)
  Intraocular Pressure, MEAN: 20.2 mmHg
A.M. readings, Day 26, 1 mg/g (Group D)
  Intraocular Pressure, MEAN: 22.9 mmHg
A.M. readings, Day 26, 5 mg/g (Group C)
  Intraocular Pressure, MEAN: 21.7 mmHg
A.M. readings, Day 26, 10 mg/g (Group B)
  Intraocular Pressure, MEAN: 21.7 mmHg
A.M. readings, Day 30, 1 mg/g (Group D)
  Intraocular Pressure, MEAN: 23.4 mmHg
A.M. readings, Day 30, 5 mg/g (Group C)
  Intraocular Pressure, MEAN: 22.6 mmHg
A.M. readings, Day 30, 10 mg/g (Group B)
  Intraocular Pressure, MEAN: 22.7 mmHg
A.M. readings, Day 32, 1 mg/g (Group D)
  Intraocular Pressure, MEAN: 24.1 mmHg
A.M. readings, Day 32, 5 mg/g (Group C)
  Intraocular Pressure, MEAN: 23.1 mmHg
A.M. readings, Day 32, 10 mg/g (Group B)
  Intraocular Pressure, MEAN: 22.9 mmHg
A.M. readings, Pre-Study, 1 mg/g (Group D)
  Intraocular Pressure, MEAN: 23.9 mmHg
A.M. readings, Pre-Study, 5 mg/g (Group C)
  Intraocular Pressure, MEAN: 24.2 mmHg
A.M. readings, Pre-Study, 10 mg/g (Group B)
  Intraocular Pressure, MEAN: 23.8 mmHg
P.M. readings, Day 3, 1 mg/g (Group D)
  Intraocular Pressure, MEAN: 25.0 mmHg
P.M. readings, Day 3, 5 mg/g (Group C)
  Intraocular Pressure, MEAN: 23.9 mmHg
P.M. readings, Day 3, 10 mg/g (Group B)
  Intraocular Pressure, MEAN: 23.3 mmHg
P.M. readings, Day 5, 1 mg/g (Group D)
  Intraocular Pressure, MEAN: 24.7 mmHg
P.M. readings, Day 5, 5 mg/g (Group C)
  Intraocular Pressure, MEAN: 24.8 mmHg
P.M. readings, Day 5, 10 mg/g (Group B)
  Intraocular Pressure, MEAN: 25.2 mmHg
P.M. readings, Day 10, 1 mg/g (Group D)
  Intraocular Pressure, MEAN: 24.9 mmHg
P.M. readings, Day 10, 5 mg/g (Group C)
  Intraocular Pressure, MEAN: 24.6 mmHg
P.M. readings, Day 10, 10 mg/g (Group B)
  Intraocular Pressure, MEAN: 23.5 mmHg
P.M. readings, Day 12, 1 mg/g (Group D)
  Intraocular Pressure, MEAN: 23.7 mmHg
P.M. readings, Day 12, 5 mg/g (Group C)
  Intraocular Pressure, MEAN: 23.3 mmHg
P.M. readings, Day 12, 10 mg/g (Group B)
  Intraocular Pressure, MEAN: 24.1 mmHg
P.M. readings, Day 16, 1 mg/g (Group D)
  Intraocular Pressure, MEAN: 21.9 mmHg
P.M. readings, Day 16, 5 mg/g (Group C)
  Intraocular Pressure, MEAN: 20.4 mmHg
P.M. readings, Day 16, 10 mg/g (Group B)
  Intraocular Pressure, MEAN: 21.4 mmHg
P.M. readings, Day 18, 1 mg/g (Group D)
  Intraocular Pressure, MEAN: 22.7 mmHg
P.M. readings, Day 18, 5 mg/g (Group C)
  Intraocular Pressure, MEAN: 21.9 mmHg
P.M. readings, Day 18, 10 mg/g (Group B)
  Intraocular Pressure, MEAN: 22.1 mmHg
P.M. readings, Day 22, 1 mg/g (Group D)
  Intraocular Pressure, MEAN: 22.1 mmHg
P.M. readings, Day 22, 5 mg/g (Group C)
  Intraocular Pressure, MEAN: 22.1 mmHg
P.M. readings, Day 22, 10 mg/g (Group B)
  Intraocular Pressure, MEAN: 22.6 mmHg
P.M. readings, Day 24, 1 mg/g (Group D)
  Intraocular Pressure, MEAN: 22.9 mmHg
P.M. readings, Day 24, 5 mg/g (Group C)
  Intraocular Pressure, MEAN: 22.2 mmHg
P.M. readings, Day 24, 10 mg/g (Group B)
  Intraocular Pressure, MEAN: 22.8 mmHg
P.M. readings, Day 26, 1 mg/g (Group D)
  Intraocular Pressure, MEAN: 22.1 mmHg
P.M. readings, Day 26, 5 mg/g (Group C)
  Intraocular Pressure, MEAN: 22.3 mmHg
P.M. readings, Day 26, 10 mg/g (Group B)
  Intraocular Pressure, MEAN: 21.4 mmHg
P.M. readings, Day 30, 10 mg/g (Group B)
  Intraocular Pressure, MEAN: 21.7 mmHg
